Molecular target: T1, human capsaicin receptor (Homo sapiens, UniProt Q8NER1)
T1 construct: A cDNA encoding full length human capsaicin receptor recited in U.S. Pat. No. 6,482,611 was subcloned in the plasmid pBK-CMV; expressed in transfected cells
Assay: Calcium mobilization assay (Example 6)
Type: cell-based
Conditions: concentration required to provide a 50% decrease in the fluorescence response of cells exposed to one IC50 of capsaicin
Outline: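 HEK293 clonal lines stably expressing full-length human capsaicin receptor, Fluo-3 AM loaded in KRH buffer pH 7.4. Compounds (final 1-5 μM) preincubated 0.5-6 h at room temperature in the dark, then capsaicin added at its predetermined IC50 concentration. FLIPR calcium signal at 30-60 s; IC50 = antagonist concentration giving 50% decrease.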

T1 sequence (Q8NER1 whole entry): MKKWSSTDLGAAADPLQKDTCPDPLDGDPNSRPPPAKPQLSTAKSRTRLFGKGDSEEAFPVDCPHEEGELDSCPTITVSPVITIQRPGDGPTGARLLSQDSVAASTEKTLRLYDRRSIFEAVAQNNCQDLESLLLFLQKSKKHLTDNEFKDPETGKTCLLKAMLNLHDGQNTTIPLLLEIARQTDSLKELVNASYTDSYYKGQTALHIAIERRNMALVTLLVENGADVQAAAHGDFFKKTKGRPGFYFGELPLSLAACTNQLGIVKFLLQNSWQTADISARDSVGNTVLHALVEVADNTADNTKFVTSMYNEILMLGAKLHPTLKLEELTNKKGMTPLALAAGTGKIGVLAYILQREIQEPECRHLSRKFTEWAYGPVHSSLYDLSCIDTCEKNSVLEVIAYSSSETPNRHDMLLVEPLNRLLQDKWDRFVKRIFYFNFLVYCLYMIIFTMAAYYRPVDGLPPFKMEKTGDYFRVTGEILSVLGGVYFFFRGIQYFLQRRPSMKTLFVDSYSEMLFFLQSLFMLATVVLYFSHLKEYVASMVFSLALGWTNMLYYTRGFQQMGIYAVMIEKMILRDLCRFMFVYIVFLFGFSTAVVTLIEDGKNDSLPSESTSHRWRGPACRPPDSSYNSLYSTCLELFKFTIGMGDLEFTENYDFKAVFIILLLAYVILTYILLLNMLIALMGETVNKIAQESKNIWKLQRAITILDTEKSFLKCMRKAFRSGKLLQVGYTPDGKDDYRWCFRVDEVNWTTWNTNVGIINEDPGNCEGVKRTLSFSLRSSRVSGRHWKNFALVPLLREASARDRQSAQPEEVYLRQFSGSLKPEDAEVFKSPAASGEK

| Compound | IC50 [nM] |
| --- | --- |
| CC(C)COCc1cc(Nc2ccc(C(C)(C)O)cn2)c2ccc(-c3ncccc3C(F)(F)F)nc2n1 [Compound 85, 2-[6-({2-(isobutoxymethyl)-7-[3-(trifluoromethyl)pyridin-2-yl]-1,8-naphthyridin-4-yl}amino)pyridin-3-yl]propan-2-ol] | ≤ 1000 |
| CN(C)Cc1cc(Nc2ccc(C(F)(F)F)cn2)c2ccc(-c3ncccc3C(F)(F)F)nc2n1 [Compound 89, 2-[(dimethylamino)methyl]-7-[3-(trifluoromethyl)pyridin-2-yl]-N-[5-(trifluoromethyl)pyridin-2-yl]-1,8-naphthyridin-4-amine] | ≤ 1000 |
| CCS(=O)(=O)N(C)Cc1cc(Nc2ccc(C(F)(F)F)cc2)c2ccc(-c3ncccc3C(F)(F)F)nc2n1 [Compound 71, N-methyl-N-({4-{[4-(trifluoromethyl)phenyl]amino}-7-[3-(trifluoromethyl)pyridin-2-yl]-1,8-naphthyridin-2-yl}methyl)ethanesulfonamide] | ≤ 1000 |
| Cc1ccc(Nc2cc(COCC(C)C)nc3nc(-c4ncccc4C(F)(F)F)ccc23)nc1 [Compound 83, 2-(isobutoxymethyl)-N-(5-methylpyridin-2-yl)-7-[3-(trifluoromethyl)pyridin-2-yl]-1,8-naphthyridin-4-amine] | ≤ 1000 |

Other lines, results leading:

| IC50 [nM] | Compound |
| --- | --- |
| ≤ 1000 | COCCN(CCOC)Cc1cc(Nc2ccc(C(F)(F)F)cc2)c2ccc(-c3ncccc3C(F)(F)F)nc2n1 [Compound 50, 2-{[bis(2-methoxyethyl)amino]methyl}-N-[4-(trifluoromethyl)phenyl]-7-[3-(trifluoromethyl)pyridin-2-yl]-1,8-naphthyridin-4-amine] |
| ≤ 1000 | Cc1cc(Nc2ccc(C(F)(F)F)cn2)c2ccc(-c3ncccc3C(F)(F)F)nc2n1 [Compound 39, 2-methyl-7-[3-(trifluoromethyl)pyridin-2-yl]-N-[5-(trifluoromethyl)pyridin-2-yl]-1,8-naphthyridin-4-amine] |
| ≤ 1000 | CCCc1cc(Nc2ccc(C(F)(F)F)cn2)c2ccc(-c3ncccc3C(F)(F)F)nc2n1 [Compound 114, 2-propyl-7-[3-(trifluoromethyl)pyridin-2-yl]-N-[5-(trifluoromethyl)pyridin-2-yl]-1,8-naphthyridin-4-amine] |
| ≤ 1000 | CCN(CCCO)Cc1cc(Nc2ccc(C(F)(F)F)cc2)c2ccc(-c3ncccc3C(F)(F)F)nc2n1 [Compound 77, 3-[ethyl({4-{[4-(trifluoromethyl)phenyl]amino}-7-[3-(trifluoromethyl)pyridin-2-yl]-1,8-naphthyridin-2-yl}methyl)amino]propan-1-ol] |
| ≤ 1000 | CCOc1cc(Nc2ccc(C(C)(C)C)cc2)c2ccc(-c3ncccc3C(F)(F)F)nc2n1 [Compound 37, N-(4-tert-butylphenyl)-2-ethoxy-7-[3-(trifluoromethyl)pyridin-2-yl]-1,8-naphthyridin-4-amine] |
